Tests used:
[1] = target: T1, L-glutamate-gated chloride channel (native, silkworm larval brain neurons, subunits not identified) (Bombyx mori, UniProt V9P9S1); test: whole-cell patch-clamp, agonist-evoked current at […] (stated to be close to EC50); assay type: cell-based
T1 construct: native receptors in cultured larval brain neurons
T1 sequence (V9P9S1 25-446): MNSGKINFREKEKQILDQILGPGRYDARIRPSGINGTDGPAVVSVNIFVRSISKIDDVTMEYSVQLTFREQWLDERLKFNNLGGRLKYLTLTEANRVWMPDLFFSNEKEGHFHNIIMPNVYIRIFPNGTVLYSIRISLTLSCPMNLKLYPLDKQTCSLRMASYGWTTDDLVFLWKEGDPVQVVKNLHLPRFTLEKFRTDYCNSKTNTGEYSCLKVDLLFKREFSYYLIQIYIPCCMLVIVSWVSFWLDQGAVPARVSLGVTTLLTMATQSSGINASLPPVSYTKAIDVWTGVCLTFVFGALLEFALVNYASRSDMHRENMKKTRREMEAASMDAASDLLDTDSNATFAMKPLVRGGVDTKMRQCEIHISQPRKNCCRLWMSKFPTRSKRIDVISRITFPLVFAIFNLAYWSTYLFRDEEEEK

[2] = system: T2, nicotinic acetylcholine receptor (native nAChRs of silkworm larval brain neurons, subunits not identified); test: whole-cell patch-clamp, agonist concentration-response; assay type: cell-based, Bombyx mori
T2 construct: native receptors in cultured larval brain neurons

[3] = system: T2, nicotinic acetylcholine receptor (native nAChRs of silkworm larval brain neurons, subunits not identified); test: whole-cell patch-clamp, block of peak ACh-induced current (slowly desensitizing current IC50 […]); assay type: cell-based, Bombyx mori
[4] = target: T3, α3β4 nicotinic acetylcholine receptor (Gallus gallus, UniProt P09481+P26153); test: two-electrode voltage-clamp, weak block:[…] reduction of the ACh response at […]; assay type: cell-based
T3 construct: gene CHRNA3; chicken α3β4 nAChR expressed in Xenopus laevis oocytes; with nAChR β4 subunit
T3 sequence (P09481 23-496): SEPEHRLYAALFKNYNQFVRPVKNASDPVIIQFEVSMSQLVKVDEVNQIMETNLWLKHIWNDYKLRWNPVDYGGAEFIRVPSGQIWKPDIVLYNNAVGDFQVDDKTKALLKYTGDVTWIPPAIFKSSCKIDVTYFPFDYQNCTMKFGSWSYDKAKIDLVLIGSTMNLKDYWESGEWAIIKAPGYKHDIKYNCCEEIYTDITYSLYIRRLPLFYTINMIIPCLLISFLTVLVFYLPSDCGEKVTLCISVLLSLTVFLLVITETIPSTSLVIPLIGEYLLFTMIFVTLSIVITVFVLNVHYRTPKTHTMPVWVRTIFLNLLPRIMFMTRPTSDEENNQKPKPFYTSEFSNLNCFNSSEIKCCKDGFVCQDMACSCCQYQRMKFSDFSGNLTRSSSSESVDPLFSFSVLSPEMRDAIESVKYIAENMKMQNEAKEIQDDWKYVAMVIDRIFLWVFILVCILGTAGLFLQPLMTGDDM
T3 sequence (P26153 4-470): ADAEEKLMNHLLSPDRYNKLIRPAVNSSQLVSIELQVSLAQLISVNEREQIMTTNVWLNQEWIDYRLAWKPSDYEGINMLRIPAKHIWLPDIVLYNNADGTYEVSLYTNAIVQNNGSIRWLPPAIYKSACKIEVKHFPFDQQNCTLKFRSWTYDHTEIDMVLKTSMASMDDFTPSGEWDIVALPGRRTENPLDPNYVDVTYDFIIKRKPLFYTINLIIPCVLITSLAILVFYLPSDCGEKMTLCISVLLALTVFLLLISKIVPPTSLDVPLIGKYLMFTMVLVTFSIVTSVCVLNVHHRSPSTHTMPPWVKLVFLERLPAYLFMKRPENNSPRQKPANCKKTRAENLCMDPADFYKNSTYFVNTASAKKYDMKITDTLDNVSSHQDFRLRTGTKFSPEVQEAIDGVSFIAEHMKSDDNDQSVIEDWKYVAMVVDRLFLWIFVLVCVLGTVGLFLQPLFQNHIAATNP

N[C@@H](CCC(=O)O)C(=O)O [L-glutamate]
EC50 [1]: ~ 30 µM

C[C@H]1CCN2C[C@]34C[C@]5(CC(=O)N(C)C5=O)C(C)(C)[C@@H]3C[C@]12C(=O)N4C [asperparaline A]
IC50 [3]: 0.0202 µM | inhibition at 10 µM [4]: 33.4%
